Reference: PMC6906394, “Radiomodifying action, Pharmacokinetic and Biodistribution of Ethyl 3, 4, 5-trihydroxybenzoate-Implication in development of radiomitigator” (Scientific Reports, 2019)
Entries after “also recorded” stand apart in the source; their conditions may differ.

What was measured:
NF-kB = test: Quantification of NF-kB in liver and kidney by indirect ELISA; assay type: in vivo, mice; conditions: GAE 200 mg/kg oral 15 min after 5 Gy whole body irradiation, p < 0.05, upto 8 h
Procedure: Black C57BL/6 male mice weighing 28–30 g were maintained at the Institutional Animal Experimental Facility. Animals were fed according to standard chow diet having free access to food and water ad libitum. The environmental condition was maintained at room temperature (22 ± 2 °C), relative humidity (45–60%) and 12 h dark/light cycle controlled facility. In this study, mice were randomly assigned to four different groups (n = 21) i.e untreated control (UC), GAE-treated (GAE), Radiation + GAE (R + GAE), Radiation group (R). Mice fasted overnight with free access to water before being dosed. Isolated GAE from leaves was dissolved with distilled water and ethanol in (7:3 v/v) and administered orally at a dose of 200 mg/kg body weight to GAE-treated and R + GAE treated groups only. […]
Measurement of NF-kB activity was done in accordance to the manufacturer’s protocol purchased from BD-biosciences. […] After development of colour 50 µl of stop solution was added to the wells and absorbance was recorded at 490 nm. A standard curve was prepared from the data produced from the serial dilution of the pure NF-kB proteins with concentration on the x-axis (log scale) vs absorbance on the Y-axis (linear).

[1] = tested on: whole body 60Co-gamma irradiated mice; test: Liver and kidney function markers SGOT, SGPT, urea and creatinine after irradiation; assay type: in vivo
Procedure: Black C57BL/6 male mice weighing 28–30 g were maintained at the Institutional Animal Experimental Facility. Animals were fed according to standard chow diet having free access to food and water ad libitum. The environmental condition was maintained at room temperature (22 ± 2 °C), relative humidity (45–60%) and 12 h dark/light cycle controlled facility. In this study, mice were randomly assigned to four different groups (n = 21) i.e untreated control (UC), GAE-treated (GAE), Radiation + GAE (R + GAE), Radiation group (R). Mice fasted overnight with free access to water before being dosed. Isolated GAE from leaves was dissolved with distilled water and ethanol in (7:3 v/v) and administered orally at a dose of 200 mg/kg body weight to GAE-treated and R + GAE treated groups only. The experiment was carried out in accordance to regulation and guideline of the, Committee for the purpose of control and supervision of Experiments on animals (CPCSEA), and study was approved by Institutional Animal Experimental Committee (IAEC), Institute of Nuclear Medicine & Allied Science, Delhi, India.
Group I untreated control (UC), Group II GAE-treated (GAE), Group III Radiation + GAE (R + GAE) and Group IV Radiation (R) exposed. The GAE was administered orally 15 min post irradiation. The whole-body radiation (5 Gy) was carried out using Bhabahtron II, Telecobalt machine, Panacea medical technology, Bangalore. The mice exposed at a dose rate of 0.961 Gy/min at field 35 × 35 cm^2 and the distance maintained from the source was 80 cm.
SGOT and SGPT are a biomarker of liver function test used to assess liver function and its damage; whereas, urea and creatinine were used to investigate kidney function and its damage. These biomarkers were analyzed in-vitro by the use of commercially available kits of agape, Kerala, India. The assay were performed according to standard procedure mention in the kit protocol. In-vitro SGOT quantitative determination were based on the reaction of L-aspartate with alpha-ketoglutarate. According to the manufacturer protocol reagent were mix and incubated for 1 minute at 37 °C. The changes in absorbance were recorded per minute during 3 minutes. In-vitro kinetic determination of SGPT were based on the reaction of L-alanine with alpha-ketoglutarate. The reagent were mixed and incubated for 1 minute at 37 °C. the changes in absorbance was recorded per minute during 3 minutes at 340 nm. Urea is in-vitro quantitative determine by the method of Talke et al., 1965. Creatinine were in-vitro determined by kits and it can be measured by quionone pigment photometrically. Reagent were mixed and incubated for 5 minute at 37 °C. the sample absorbance and the standard against the reagent blank were measured at 546 nm.

[2] = R + GAE group (5 Gy, GAE 200 mg/kg oral 15 min post irradiation), 8 h
[3] = R + GAE group (5 Gy, GAE 200 mg/kg oral 15 min post irradiation), 24 h

Q: For `CCOC(=O)c1cc(O)c(O)c(O)c1` [GAE, Ethyl 3,4,5-trihydroxybenzoate], which “NF-kB level/expression in liver and kidney compared to irradiated mice” value (NF-kB) is on record?
A: inhibits NF-kB expression; also recorded: significant minimal expression; also recorded: significantly inhibits; also recorded: significantly reduces

Q: What about the “change of SGOT, SGPT, urea and creatinine in serum compared to irradiated animals not receiving GAE” value ([1]; GAE 200 mg/kg b.wt oral 15 min post 5 Gy irradiation, P < 0.05) of the same compound?
A: significant reduction

Q: And the SGOT level [1, 2]?
A: 24.10 ± 2.4 U/L

Q: And the SGPT level [1, 2]?
A: 36.01 ± 6.1 U/L

Q: And the urea level [1, 2]?
A: 18.16 ± 0.003 mg/dL

Q: What about the SGOT level [1, 3] of the same compound?
A: 63.11 ± 6.16 U/L

Q: And the SGPT level [1, 3]?
A: 62.15 ± 8.63 U/L

Q: And the creatinine level ([1]; R + GAE group (5 Gy, GAE 200 mg/kg oral 15 min post irradiation), upto 8 h)?
A: 1.05 ± 0.04 mg/dL

Q: What about the “duration of radiomodifying action” value ([1]; post irradiation (5 Gy), liver and kidney function biomarkers, efficacy reduced at 24 h) of the same compound?
A: ≤ 8 h
